# Experiments:
# [1] = dog, in vivo
# Excerpt: Eight healthy 8-month-old male beagles were obtained from the Chulalongkorn University Laboratory Animal Centre (CULAC), Chulalongkorn University. […] Food was provided twice a day, and water was available ad libitum. […] The animal experiments were approved by the Institutional Animal Care and Use Committee of the CULAC, Chulalongkorn University, Bangkok, Thailand (Protocol number 2073002, Approval date: February 21, 2020). All animal procedures were complied with the ethical principles and guidelines for the use of animals (National Research Council of Thailand, 2015). All animal experiments followed the ARRIVE reporting guidelines for documenting animal experiments.
# (§1) One or two capsules containing the test substance were orally administered at 8:00 AM to the dogs following the experimental plan. […] The blood samples were centrifuged at 5000g for 10 min at 4 °C to collect plasma and then stored at − 80 °C until analysis. […] The volume of urine and weight of faeces were recorded and all samples were stored at − 80 °C until analysis. All dogs were reused with a washed out period of two weeks, to allow complete excretion of bioactive triterpenoids.
# All biological samples (plasma, urine, and faeces) were subjected to protein precipitation to extract the major triterpenoids from the samples. Two hundred microliters of methanol with two internal standards (glycyrrhizin and glycyrrhetinic acid) was added to 50 µL of the biological sample and mixed for 10 min. Then, the sample was centrifuged at 12,000g for 10 min at 4 °C, and 10 µL of supernatant was injected into the LC–MS/MS system. Faeces samples were homogenised by adding methanol, then the mixture was centrifuged at 1500g for 10 min at 4 °C to collect the supernatant. In the case of the concentration of the biological sample exceeded the linear calibration curve; blank matrices were used to dilute before protein precipitation. For method validation, all major components in the biological sample of dog were determined and validated according to the previous reports with little modification.
# The LC–MS/MS system was set up according to a previous published method. In brief, an LCMS-8060 coupled with a triple quadrupole mass spectrometer was controlled by LabSolution software version 5.86 (Shimadzu Corp.). A Synergi Fusion-RP C18 column (Phenomenex Inc.) maintained at 40 °C was used as the stationary phase. The analysis was run using absolute methanol and 0.2% formic acid in water as the mobile phase.
# To evaluate significant differences between the pre- and post-dose of the test substances to the health status of dogs, the biochemical data were compared by using Student’s t-test. PK solution software version 2.0 (Summit Research Services) was used to analyse pharmacokinetic parameters by non-compartmental analysis. Cmax and Tmax were directly determined from plasma concentration–time curves. AUC0-24 was calculated using the trapezoidal rule and extrapolated to time infinity by the equation AUC0-inf = AUC0–24 + (Clast/kel), where Clast is the last observed plasma concentration after dosing and kel is the elimination rate constant. MRT was calculated as AUMC0-inf/AUC0-inf, where AUMC0-inf is the area under the first moment concentration–time curve. Vd was equal to dose/C0, where C0 is the plasma concentration at time zero and CL was calculated as dose/AUC0-inf. […] Absolute bioavailability was calculated as (AUCp.o./DOSEp.o.)/(AUCi.v./DOSEi.v.) × 100. Relative bioavailability was calculated from (AUCCTS/DOSECTS)/(AUCECa/DOSEECa) × 100. Before performing the statistical analysis in SPSS version 22.0 (IBM Corp.), the Shapiro–Wilk test was used to determine whether the data were normally distributed. A paired Student’s t test or Wilcoxon signed-rank test was used to determine significant differences of pharmacokinetic parameters between the groups.
# [2] = dog, in vivo, iv
# Procedure: as §1
# All biological samples (plasma, urine, and faeces) were subjected to protein precipitation to extract the major triterpenoids from the samples. […] For method validation, all major components in the biological sample of dog were determined and validated according to the previous reports with little modification. […]
# (§2) To evaluate significant differences between the pre- and post-dose of the test substances to the health status of dogs, the biochemical data were compared by using Student’s t-test. […] Cmax and Tmax were directly determined from plasma concentration–time curves. AUC0-24 was calculated using the trapezoidal rule and extrapolated to time infinity by the equation AUC0-inf = AUC0–24 + (Clast/kel), where Clast is the last observed plasma concentration after dosing and kel is the elimination rate constant. […] Absolute bioavailability was calculated as (AUCp.o./DOSEp.o.)/(AUCi.v./DOSEi.v.) × 100. […]
# [3] = dog, in vivo; remark: listed apart in the source
# Procedure: as §1
# as §2, with “constant. MRT was calculated as AUMC0-inf/AUC0-inf, where AUMC0-inf is the area under the first moment concentration–time curve. Vd was equal to dose/C0, where C0 is the plasma concentration at time zero and CL was calculated as dose/AUC0-inf.” for “constant.”, “100. Relative bioavailability was calculated from (AUCCTS/DOSECTS)/(AUCECa/DOSEECa) × 100.” for “100.”
plasma concentration compared with madecassic acid ([1]; po),excretion route of parent triterpenoid glycosides [2],"measured biochemical parameters (haematology, kidney, liver functions), pre-dose versus post-dose [3]","AUC0-24 of madecassoside ([1]; iv, 0.46 mg/kg)","AUC0-inf of madecassoside ([1]; iv, 0.46 mg/kg)","Half-life of madecassoside ([1]; iv, 0.46 mg/kg)","MRT of madecassoside ([1]; iv, 0.46 mg/kg) [h]","Vd of madecassoside ([1]; iv, 0.46 mg/kg) [L/kg]",Structure (SMILES)
approximately tenfold higher,–,–,–,–,–,–,–,C[C@H]1[C@H](C)CC[C@]2(C(=O)O)CC[C@]3(C)C(=CC[C@@H]4[C@@]5(C)C[C@@H](O)[C@H](O)[C@@](C)(CO)[C@@H]5CC[C@]43C)[C@H]12 [asiatic acid]
–,excreted via urine within 24 h,no significant differences,"15,662 ± 1927 µg.h/L","15,705 ± 1938 µg.h/L",3.88 (0.40) h,8.05 ± 0.99,0.18 ± 0.05,C[C@H]1[C@H](C)CC[C@]2(C(=O)O[C@@H]3O[C@H](CO[C@@H]4O[C@H](CO)[C@@H](O[C@@H]5O[C@@H](C)[C@H](O)[C@@H](O)[C@H]5O)[C@H](O)[C@H]4O)[C@@H](O)[C@H](O)[C@H]3O)CC[C@]3(C)C(=CC[C@@H]4[C@@]5(C)C[C@@H](O)[C@H](O)[C@@](C)(CO)[C@@H]5[C@H](O)C[C@]43C)[C@H]12 [madecassoside]

# Reference: paper PMC8861063, “Increase water solubility of Centellaasiatica extract by indigenous bioenhancers could improve oral bioavailability and disposition kinetics of triterpenoid glycosides in beagle dogs” (Scientific Reports, 2022)
